Laboratory results from US11452725B2, “Chiral diaryl macrocycles and uses thereof” (TURNING POINT THERAPEUTICS, INC., priority 2015, dated 2022).

Columns and labels:
[1] = tested on: Ba/F3 TPR-ALK L1196M cell line; assay: Cell proliferation assay at Advanced Cellular Dynamics (CellTiter-Glo); type: cell-based; settings: Mus musculus, BaF3, 48 hours
TXK = target: T1, TXK (Homo sapiens, UniProt P42681); assay: Biochemical kinase assay (Reaction Biology); settings: 10 μM ATP
T1 construct: purchased Reaction Biology Corporation
T1 sequence (P42681 whole entry): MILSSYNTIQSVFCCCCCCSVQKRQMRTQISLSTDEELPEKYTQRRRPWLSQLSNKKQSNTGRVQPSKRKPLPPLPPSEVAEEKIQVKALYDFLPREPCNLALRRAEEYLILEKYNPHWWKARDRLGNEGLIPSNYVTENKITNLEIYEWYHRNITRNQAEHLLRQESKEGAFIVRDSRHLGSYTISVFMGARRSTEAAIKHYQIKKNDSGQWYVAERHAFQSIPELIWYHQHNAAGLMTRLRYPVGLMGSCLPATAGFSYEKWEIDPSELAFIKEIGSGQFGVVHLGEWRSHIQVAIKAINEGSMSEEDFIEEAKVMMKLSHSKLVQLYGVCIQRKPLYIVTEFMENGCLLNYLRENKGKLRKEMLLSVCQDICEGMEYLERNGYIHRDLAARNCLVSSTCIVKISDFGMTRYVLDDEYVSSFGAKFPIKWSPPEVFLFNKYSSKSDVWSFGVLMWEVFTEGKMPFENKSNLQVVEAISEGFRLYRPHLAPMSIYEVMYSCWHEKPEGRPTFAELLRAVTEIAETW

[2] = tested on: Ba/F3 SDC4-ROS1 G2032R cell line; assay: Cell proliferation assay (CellTiter-Glo); type: cell-based; settings: Mus musculus, BaF3; 72 hours
[3] = tested on: Ba/F3 CD74-ROS1 L2026M cell line; assay: Cell proliferation assay (CellTiter-Glo); type: cell-based; settings: Mus musculus, BaF3, 72 h, read-out: Cell proliferation of Ba/F3 CD74-ROS1 L2026M cell line IC50
FYN = target: T2, FYN (Homo sapiens, UniProt P06241); assay: Biochemical kinase assay (Reaction Biology); settings: 10 μM ATP
T2 construct: purchased Reaction Biology Corporation
T2 sequence (P06241 whole entry): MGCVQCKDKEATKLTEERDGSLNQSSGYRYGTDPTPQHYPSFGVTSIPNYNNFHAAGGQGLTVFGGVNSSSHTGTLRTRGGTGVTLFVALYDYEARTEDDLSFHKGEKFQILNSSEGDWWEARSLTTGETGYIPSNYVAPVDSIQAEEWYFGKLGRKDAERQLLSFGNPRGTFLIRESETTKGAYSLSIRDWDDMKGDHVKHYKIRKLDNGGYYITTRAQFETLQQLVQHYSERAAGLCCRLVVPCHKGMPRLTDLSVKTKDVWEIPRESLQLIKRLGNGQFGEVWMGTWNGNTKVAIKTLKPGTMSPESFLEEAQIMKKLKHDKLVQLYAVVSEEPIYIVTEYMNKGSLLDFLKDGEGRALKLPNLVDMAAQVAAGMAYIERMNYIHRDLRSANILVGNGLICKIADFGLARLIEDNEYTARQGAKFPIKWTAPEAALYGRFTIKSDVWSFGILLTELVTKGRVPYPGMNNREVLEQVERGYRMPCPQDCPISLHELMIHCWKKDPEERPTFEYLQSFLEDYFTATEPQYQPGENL

AKT = assay: Immunoblotting downstream signaling, Karpas-299 cells; type: cell-based; settings: Homo sapiens, read-out: downstream AKT phosphorylation IC50
Description: (§1) NSCLC cell line H2228 (harboring endogenous EML4-ALK fusion gene), HCC78 cells (harboring endogenous SLC34A2-ROS1 fusion gene), Karpas-299 cells (harboring endogenous NPM-ALK fusion gene) or SET-2 (harboring endogenous JAK2V617F activating mutation) were cultured in RPMI medium, and KM12 (harboring endogenous TPM3-TRKA fusion gene) cell line was cultured in DMEM medium, both supplemented with 10% fetal bovine serum and 100 U/mL of penicillin/streptomycin. Ba/F3 and NIH3T3 cells stably expressing ALK or ROS1 (WT or mutant) were culture as mentioned above. […] Protein lysates (approximately 20 μg) was resolved on 4-12% Bolt Bis-Tris precasted gels with MES running buffer (Life Technologies), transferred to nitrocellulose membranes using Trans-Blot Turbo Transfer System (Bio-Rad) and detected with antibodies targeting phosphorylated ALK Y1604 (Cell Signaling Technology), total ALK (Cell Signaling Technology), phosphorylated ROS1 and total ROS1 (Cell Signaling Technology), phosphorylated TRK A/B (Cell Signaling Technology), total TRKA antibody (Santa Cruz Biotechnology), phosphorylated STAT3 and STAT5, total STAT3 and STAT5 (Cell Signaling Technology), phosphorylated AKT (Cell Signaling Technology), total AKT (Cell Signaling Technology), phosphorylated ERK (Cell Signaling Technology), total ERK (Cell Signaling Technology) and Tubulin (Sigma). […]

STAT3 = assay: as above; type: cell-based; settings: Homo sapiens, read-out: downstream STAT3 phosphorylation IC50
Description: as §1

[4] = tested on: NIH3T3 EML4-ALK WT tumors; assay: NIH3T3 EML4-ALK WT subcutaneous xenograft model; type: in vivo, athymic nude mice; settings: 12 days
DDR2 = target: T3, DDR2 (Homo sapiens, UniProt Q16832); assay: Biochemical kinase assay (Reaction Biology); settings: 10 μM ATP
T3 construct: purchased Reaction Biology Corporation (contract assay)
T3 sequence (Q16832 22-855): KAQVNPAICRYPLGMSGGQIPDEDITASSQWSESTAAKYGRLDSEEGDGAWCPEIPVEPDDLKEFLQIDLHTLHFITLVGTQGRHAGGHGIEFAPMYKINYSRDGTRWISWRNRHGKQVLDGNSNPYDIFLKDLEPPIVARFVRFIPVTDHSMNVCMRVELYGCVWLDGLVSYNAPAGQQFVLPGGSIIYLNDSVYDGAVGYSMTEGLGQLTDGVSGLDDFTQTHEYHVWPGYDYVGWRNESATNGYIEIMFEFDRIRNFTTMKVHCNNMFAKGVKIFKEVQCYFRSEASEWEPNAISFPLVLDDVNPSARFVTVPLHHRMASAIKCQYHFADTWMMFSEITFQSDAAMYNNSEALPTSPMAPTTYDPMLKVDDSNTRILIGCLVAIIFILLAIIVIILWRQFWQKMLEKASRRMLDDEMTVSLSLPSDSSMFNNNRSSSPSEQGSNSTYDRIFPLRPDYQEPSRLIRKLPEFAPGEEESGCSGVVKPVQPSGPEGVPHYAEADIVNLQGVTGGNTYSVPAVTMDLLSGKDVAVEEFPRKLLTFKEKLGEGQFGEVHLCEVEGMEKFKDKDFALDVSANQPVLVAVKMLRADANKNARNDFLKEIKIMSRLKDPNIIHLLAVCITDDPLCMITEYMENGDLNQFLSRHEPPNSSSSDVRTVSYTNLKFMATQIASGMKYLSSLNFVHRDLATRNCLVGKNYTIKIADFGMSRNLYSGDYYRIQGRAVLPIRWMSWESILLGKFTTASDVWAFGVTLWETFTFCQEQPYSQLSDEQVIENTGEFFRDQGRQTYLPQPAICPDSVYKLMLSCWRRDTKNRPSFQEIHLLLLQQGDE

GRK7 = target: T4, GRK7 (Homo sapiens, UniProt Q8WTQ7); assay: Biochemical kinase assay (Reaction Biology); settings: 10 μM ATP
T4 construct: purchased Reaction Biology Corporation (contract assay)

ARK5 = ARK5 (Homo sapiens, UniProt O60285); assay: KINOMEscan kinase binding assay (DiscoveRx)
ARK5, sequence (O60285 whole entry): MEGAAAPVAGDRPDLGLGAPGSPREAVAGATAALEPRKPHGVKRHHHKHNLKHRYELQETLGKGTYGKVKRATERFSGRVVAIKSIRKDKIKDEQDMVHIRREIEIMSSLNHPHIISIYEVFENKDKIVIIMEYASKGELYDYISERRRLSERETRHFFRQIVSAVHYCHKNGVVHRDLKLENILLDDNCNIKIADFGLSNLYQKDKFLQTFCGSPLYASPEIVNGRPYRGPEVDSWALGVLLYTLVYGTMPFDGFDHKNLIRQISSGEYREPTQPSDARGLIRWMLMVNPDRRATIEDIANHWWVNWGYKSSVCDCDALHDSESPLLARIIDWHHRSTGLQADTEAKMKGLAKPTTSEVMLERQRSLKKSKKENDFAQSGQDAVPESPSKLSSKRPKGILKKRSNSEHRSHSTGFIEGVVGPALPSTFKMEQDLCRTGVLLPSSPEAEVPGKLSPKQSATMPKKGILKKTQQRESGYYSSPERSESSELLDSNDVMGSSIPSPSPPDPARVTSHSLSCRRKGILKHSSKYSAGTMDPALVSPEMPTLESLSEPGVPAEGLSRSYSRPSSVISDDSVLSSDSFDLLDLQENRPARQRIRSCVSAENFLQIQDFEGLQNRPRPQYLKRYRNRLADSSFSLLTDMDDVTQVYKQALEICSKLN
Description: (§2) Kinase binding assays were performed at DiscoveRx using the general KINOMEscan Kd Protocol (Fabian, M. A. et al., “A small molecule-kinase interaction map for clinical kinase inhibitors,” Nat. Biotechnol. 2005, 23(3):329-36). For most assays, kinase-tagged T7 phage strains were prepared in an E. coli host derived from the BL21 strain. E. coli were grown to log-phase and infected with T7 phage and incubated with shaking at 32° C. until lysis. The lysates were centrifuged and filtered to remove cell debris. The remaining kinases were produced in HEK-293 cells and subsequently tagged with DNA for qPCR detection. […] The liganded beads were blocked with excess biotin and washed with blocking buffer (SeaBlock (Pierce), 1% BSA, 0.05% Tween 20, 1 mM DTT) to remove unbound ligand and to reduce nonspecific binding. […] All reactions were performed in polystyrene 96-well plates in a final volume of 0.135 mL. […] The kinase concentration in the eluates was measured by qPCR.
(§3) Binding constants (Kds) were calculated with a standard dose-response curve using the Hill equation: Response=Background+(Signal−Background)/(1+(Kd^Hill Slope/Dose^Hill Slope)) The Hill Slope was set to −1. Curves were fitted using a non-linear least square fit with the Levenberg-Marquardt algorithm.

FAK = FAK (Homo sapiens, UniProt Q05397); assay: KINOMEscan kinase binding assay (DiscoveRx)
FAK, sequence (Q05397 whole entry): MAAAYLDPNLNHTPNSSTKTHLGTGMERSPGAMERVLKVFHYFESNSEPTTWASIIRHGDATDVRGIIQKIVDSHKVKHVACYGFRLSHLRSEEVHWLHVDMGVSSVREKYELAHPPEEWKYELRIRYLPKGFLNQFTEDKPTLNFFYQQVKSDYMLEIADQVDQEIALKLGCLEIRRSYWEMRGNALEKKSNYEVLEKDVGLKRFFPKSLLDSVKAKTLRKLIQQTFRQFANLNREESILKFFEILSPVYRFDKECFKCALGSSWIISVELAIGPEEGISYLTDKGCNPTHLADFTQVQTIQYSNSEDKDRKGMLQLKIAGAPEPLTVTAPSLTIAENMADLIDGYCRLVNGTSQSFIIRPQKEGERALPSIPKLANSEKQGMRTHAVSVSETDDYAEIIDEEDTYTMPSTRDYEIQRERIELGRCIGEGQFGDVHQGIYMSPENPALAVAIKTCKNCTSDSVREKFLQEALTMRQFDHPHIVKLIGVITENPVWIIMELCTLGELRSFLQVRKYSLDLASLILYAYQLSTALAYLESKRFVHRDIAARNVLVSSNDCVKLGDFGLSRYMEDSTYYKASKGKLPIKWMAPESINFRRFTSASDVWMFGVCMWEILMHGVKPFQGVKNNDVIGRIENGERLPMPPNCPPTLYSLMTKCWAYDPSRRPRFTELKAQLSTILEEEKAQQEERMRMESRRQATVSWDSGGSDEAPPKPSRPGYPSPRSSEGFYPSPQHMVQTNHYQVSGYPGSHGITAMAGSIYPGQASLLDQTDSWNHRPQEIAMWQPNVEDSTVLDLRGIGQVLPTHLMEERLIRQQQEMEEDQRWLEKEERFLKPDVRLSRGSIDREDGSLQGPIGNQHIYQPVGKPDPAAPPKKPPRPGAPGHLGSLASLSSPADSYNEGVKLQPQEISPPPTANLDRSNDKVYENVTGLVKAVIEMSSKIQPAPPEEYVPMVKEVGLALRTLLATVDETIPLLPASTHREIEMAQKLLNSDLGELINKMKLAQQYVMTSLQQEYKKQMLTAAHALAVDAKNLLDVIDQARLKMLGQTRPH
Description: as §2, §3

EPHA8 = target: T5, EPHA8 (Homo sapiens, UniProt P29322); assay: Biochemical kinase assay (Reaction Biology); settings: 10 μM ATP
T5 construct: purchased Reaction Biology Corporation (contract assay)
T5 sequence (P29322 28-1005): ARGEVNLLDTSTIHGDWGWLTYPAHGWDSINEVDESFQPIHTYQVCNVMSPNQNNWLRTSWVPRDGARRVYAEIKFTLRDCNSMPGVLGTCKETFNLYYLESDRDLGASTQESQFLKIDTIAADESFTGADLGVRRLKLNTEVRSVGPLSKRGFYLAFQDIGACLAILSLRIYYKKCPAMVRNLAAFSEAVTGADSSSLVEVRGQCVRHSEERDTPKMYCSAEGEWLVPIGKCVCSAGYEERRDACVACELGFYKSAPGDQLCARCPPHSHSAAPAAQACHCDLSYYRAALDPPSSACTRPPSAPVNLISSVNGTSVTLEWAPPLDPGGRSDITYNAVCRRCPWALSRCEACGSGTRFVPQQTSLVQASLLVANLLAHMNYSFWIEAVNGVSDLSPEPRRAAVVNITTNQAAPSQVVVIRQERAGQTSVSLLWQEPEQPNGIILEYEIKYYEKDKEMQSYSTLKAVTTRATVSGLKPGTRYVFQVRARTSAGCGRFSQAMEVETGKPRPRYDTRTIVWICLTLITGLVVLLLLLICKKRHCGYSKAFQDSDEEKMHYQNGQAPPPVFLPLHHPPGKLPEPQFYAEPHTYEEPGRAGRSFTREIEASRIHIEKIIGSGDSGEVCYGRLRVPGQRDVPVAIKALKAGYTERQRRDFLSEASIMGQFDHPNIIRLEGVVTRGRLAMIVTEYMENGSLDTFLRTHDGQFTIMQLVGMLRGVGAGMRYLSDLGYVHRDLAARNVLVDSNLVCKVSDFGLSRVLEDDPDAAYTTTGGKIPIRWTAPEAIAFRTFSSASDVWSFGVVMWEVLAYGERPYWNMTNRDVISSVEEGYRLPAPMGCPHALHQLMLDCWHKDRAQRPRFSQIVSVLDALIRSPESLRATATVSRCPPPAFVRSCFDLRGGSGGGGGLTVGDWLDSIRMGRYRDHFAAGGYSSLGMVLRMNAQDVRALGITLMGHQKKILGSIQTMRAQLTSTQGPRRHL

Compound: C[C@H]1CNC(=O)c2cnn3ccc(nc23)N[C@H](C)c2cc(F)ccc2O1 [Compound 1, (7S,13R)-11-fluoro-7,13-dimethyl-6,7,13,14-tetrahydro-1,15-ethenopyrazolo[4,3-f][1,4,8,10]benzoxatriazacyclotridecin-4(5H)-one]
- IC50 [1]: 13.4 nM
- IC50 (TXK): 3.17 nM
- IC50 [2]: 5 nM
- IC50 (FYN): 1.05 nM
- IC50 (AKT): 1 to 3 nM
- IC50 (STAT3): 1 to 3 nM
- mice exhibiting tumor regression ([4]; 15 mg/kg/BID orally): 2 of 8
- mice exhibiting tumor regression ([4]; 50 mg/kg/BID orally): 8 of 8
- tumor regression (REG) ([4]; 50 mg/kg/BID orally): 41%
- IC50 (DDR2): 23 nM
- IC50 (GRK7): 35.2 nM
- Kd (ARK5): 3.7 nM
- Kd (FAK): 27 nM
- IC50 (EPHA8): 50.2 nM
